In PubChem BioAssay (NCI):
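Where inhibition never reached the appropriate level, the endpoint shown equals the highest concentration tested. Otherwise, values were interpolated linearly from a five-concentration, 48-hour dose response in 96-well plates. TGI denotes the concentration required for complete inhibition of growth.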

Assays:
Test in all cases: inhibition of tumour cell growth, NCI panel, 48 h
NCI-H23 lung = system: NCI-H23 lung
ACHN renal = system: ACHN renal
A549 NSCLC = system: A549 NSCLC
HT29 colon = system: HT29 colon
NCI-H226 lung = system: NCI-H226 lung
TK-10 renal = system: TK-10 renal
HOP-62 NSCLC = system: HOP-62 NSCLC
PC-3 prostate = system: PC-3 prostate
MDA-MB-231 breast = system: MDA-MB-231 breast
MDA-N = system: MDA-N
COLO 205 colon = system: COLO 205 colon
SF-539 CNS = system: SF-539 CNS
HCT-116 colon = system: HCT-116 colon
U251 CNS = system: U251 CNS
UO-31 renal = system: UO-31 renal
SK-MEL-5 melanoma = system: SK-MEL-5 melanoma
HOP-92 NSCLC = system: HOP-92 NSCLC
UACC-257 melanoma = system: UACC-257 melanoma
K-562 leukemia = system: K-562 leukemia
MOLT-4 leukemia = system: MOLT-4 leukemia
OVCAR-3 ovarian = system: OVCAR-3 ovarian
CAKI-1 renal = system: CAKI-1 renal
MCF7 breast = system: MCF7 breast
LOX IMVI melanoma = system: LOX IMVI melanoma
SK-OV-3 ovarian = system: SK-OV-3 ovarian
HCT-15 colon = system: HCT-15 colon
SF-295 CNS = system: SF-295 CNS
SN12C renal = system: SN12C renal
CCRF-CEM leukemia = system: CCRF-CEM leukemia
MALME-3M melanoma = system: MALME-3M melanoma
RPMI-8226 leukemia = system: RPMI-8226 leukemia
M14 melanoma = system: M14 melanoma
KM12 colon = system: KM12 colon
NCI/ADR-RES ovarian = system: NCI/ADR-RES ovarian
SK-MEL-28 melanoma = system: SK-MEL-28 melanoma
OVCAR-5 ovarian = system: OVCAR-5 ovarian
IGROV1 ovarian = system: IGROV1 ovarian
SNB-19 CNS = system: SNB-19 CNS
HCC-2998 colon = system: HCC-2998 colon
SK-MEL-2 melanoma = system: SK-MEL-2 melanoma
MDA-MB-435 = system: MDA-MB-435
SNB-75 CNS = system: SNB-75 CNS
T-47D breast = system: T-47D breast
OVCAR-8 ovarian = system: OVCAR-8 ovarian
UACC-62 melanoma = system: UACC-62 melanoma
EKVX NSCLC = system: EKVX NSCLC
OVCAR-4 ovarian = system: OVCAR-4 ovarian
DU-145 prostate = system: DU-145 prostate
786-0 renal = system: 786-0 renal
NCI-H522 lung = system: NCI-H522 lung
RXF 393 renal = system: RXF 393 renal
A498 renal = system: A498 renal
SW-620 colon = system: SW-620 colon
SF-268 CNS = system: SF-268 CNS
BT-549 breast = system: BT-549 breast
SR leukemia = system: SR leukemia
NCI-H460 lung = system: NCI-H460 lung
HL-60(TB) leukemia = system: HL-60(TB) leukemia

C=C1[C@@H](OC(C)=O)[C@H]2[C@@H](OC(C)=O)[C@@](C)(OC(C)=O)C[C@]2(OC(C)=O)C(=O)[C@@H](C)/C=C/C(C)(C)C(=O)C[C@H]1OC(C)=O
TGI (NCI-H23 lung): > 100 µM | TGI (ACHN renal): > 100 µM | TGI (A549 NSCLC): > 100 µM | TGI (HT29 colon): > 100 µM | TGI (NCI-H226 lung): > 100 µM | TGI (TK-10 renal): > 100 µM | TGI (HOP-62 NSCLC): > 100 µM | TGI (PC-3 prostate): > 100 µM | TGI (MDA-MB-231 breast): > 100 µM | TGI (MDA-N): > 100 µM | TGI (COLO 205 colon): > 100 µM | TGI (SF-539 CNS): > 100 µM | TGI (HCT-116 colon): > 100 µM | TGI (U251 CNS): > 100 µM | TGI (UO-31 renal): > 100 µM | TGI (SK-MEL-5 melanoma): > 100 µM | TGI (HOP-92 NSCLC): > 100 µM | TGI (UACC-257 melanoma): > 100 µM | TGI (K-562 leukemia): > 100 µM | TGI (MOLT-4 leukemia): > 100 µM | TGI (OVCAR-3 ovarian): > 100 µM | TGI (CAKI-1 renal): > 100 µM | TGI (MCF7 breast): > 100 µM | TGI (LOX IMVI melanoma): > 100 µM | TGI (SK-OV-3 ovarian): > 100 µM | TGI (HCT-15 colon): > 100 µM | TGI (SF-295 CNS): > 100 µM | TGI (SN12C renal): > 100 µM | TGI (CCRF-CEM leukemia): > 100 µM | TGI (MALME-3M melanoma): > 100 µM | TGI (RPMI-8226 leukemia): > 100 µM | TGI (M14 melanoma): > 100 µM | TGI (KM12 colon): > 100 µM | TGI (NCI/ADR-RES ovarian): > 100 µM | TGI (SK-MEL-28 melanoma): > 100 µM | TGI (OVCAR-5 ovarian): > 100 µM | TGI (IGROV1 ovarian): > 100 µM | TGI (SNB-19 CNS): > 100 µM | TGI (HCC-2998 colon): > 100 µM | TGI (SK-MEL-2 melanoma): > 100 µM | TGI (MDA-MB-435): > 100 µM | TGI (SNB-75 CNS): > 100 µM | TGI (T-47D breast): > 100 µM | TGI (OVCAR-8 ovarian): > 100 µM | TGI (UACC-62 melanoma): > 100 µM | TGI (EKVX NSCLC): > 100 µM | TGI (OVCAR-4 ovarian): > 100 µM | TGI (DU-145 prostate): > 100 µM | TGI (786-0 renal): > 100 µM | TGI (NCI-H522 lung): > 100 µM | TGI (RXF 393 renal): > 100 µM

Cc1ccc(N=NC(=O)NNc2ccc(C)c([N+](=O)[O-])c2)cc1[N+](=O)[O-]
TGI (NCI-H23 lung): > 100 µM | TGI (ACHN renal): 90.3 µM | TGI (A549 NSCLC): > 100 µM | TGI (HT29 colon): > 100 µM | TGI (NCI-H226 lung): > 100 µM | TGI (A498 renal): 63.2 µM | TGI (TK-10 renal): > 100 µM | TGI (HOP-62 NSCLC): 63.5 µM | TGI (PC-3 prostate): > 100 µM | TGI (MDA-MB-231 breast): > 100 µM | TGI (SW-620 colon): > 100 µM | TGI (MDA-N): > 100 µM | TGI (HCT-116 colon): > 100 µM | TGI (U251 CNS): > 100 µM | TGI (SF-268 CNS): > 100 µM | TGI (UO-31 renal): 82.8 µM | TGI (BT-549 breast): > 100 µM | TGI (SK-MEL-5 melanoma): 77.7 µM | TGI (UACC-257 melanoma): 88.3 µM | TGI (K-562 leukemia): 50.3 µM | TGI (MOLT-4 leukemia): 65.5 µM | TGI (OVCAR-3 ovarian): 57.4 µM | TGI (CAKI-1 renal): > 100 µM | TGI (MCF7 breast): 69.5 µM | TGI (LOX IMVI melanoma): 36.7 µM | TGI (HCT-15 colon): > 100 µM | TGI (SN12C renal): > 100 µM | TGI (SR leukemia): > 100 µM | TGI (CCRF-CEM leukemia): > 100 µM | TGI (MALME-3M melanoma): 83.3 µM | TGI (RPMI-8226 leukemia): 85.8 µM | TGI (M14 melanoma): > 100 µM | TGI (SK-MEL-28 melanoma): 77.4 µM | TGI (OVCAR-5 ovarian): > 100 µM | TGI (IGROV1 ovarian): > 100 µM | TGI (SNB-19 CNS): > 100 µM | TGI (HCC-2998 colon): 33 µM | TGI (SK-MEL-2 melanoma): 30.3 µM | TGI (MDA-MB-435): > 100 µM | TGI (SNB-75 CNS): 95.9 µM | TGI (T-47D breast): > 100 µM | TGI (OVCAR-8 ovarian): > 100 µM | TGI (NCI-H460 lung): 77 µM | TGI (HL-60(TB) leukemia): 50.4 µM | TGI (UACC-62 melanoma): 50.2 µM | TGI (OVCAR-4 ovarian): 82.6 µM | TGI (DU-145 prostate): > 100 µM | TGI (786-0 renal): 90.4 µM | TGI (NCI-H522 lung): 36.8 µM
